Assay results reported in ChEMBL document CHEMBL4725399, “Galangin ameliorated pulmonary fibrosis in vivo and in vitro by regulating epithelial-mesenchymal transition” (Bioorg Med Chem, 2020).
The source made the active and inactive calls. The calls are words filed in the database; no cut-off is given here.

Tests used:
[1] = test system: Mus musculus; assay: Antifibrotic activity in C57BL/6 mouse model of bleomycin-induced lung fibrosis assessed as reduction in weight loss at 50 mg/kg dosed via oral gavage and measured for 7 to 14 days; format: functional, organism-based; conditions: time day 7-14
[2] = test system: Mus musculus; assay: Antifibrotic activity in C57BL/6 mouse model of bleomycin-induced lung fibrosis assessed as reduction in weight loss at 25 mg/kg dosed via oral gavage and measured for 7 to 14 days; format: functional, organism-based; conditions: time day 7-14
[3] = test system: Mus musculus; assay: Antifibrotic activity in po dosed C57BL/6 mouse model of bleomycin-induced lung fibrosis assessed as reduction in weight loss after 7 to 14 days; format: functional, organism-based; conditions: dose mg/kg 25-50, time day 7-14
[4] = test system: Mus musculus; assay: Antifibrotic activity in C57BL/6 mouse model of bleomycin-induced lung fibrosis assessed as reduction in CD4+CD69+ T-cells at 50 mg/kg dosed via oral gavage for 14 days by flow cytometry analysis; format: functional, organism-based; conditions: time 14.0 day
[5] = test system: Mus musculus; assay: Antifibrotic activity in C57BL/6 mouse model of bleomycin-induced lung fibrosis assessed as reduction in CD4+CD69+ T-cells at 25 mg/kg dosed via oral gavage for 14 days by flow cytometry analysis; format: functional, organism-based; conditions: dose 25.0 […], time 14.0 day
[6] = test system: Mus musculus; assay: Antifibrotic activity in C57BL/6 mouse model of bleomycin-induced lung fibrosis assessed as reduction in CD8+CD69+ T-cells at 50 mg/kg dosed via oral gavage for 14 days by flow cytometry analysis; format: functional, organism-based; conditions: time 14.0 day
[7] = test system: Mus musculus; assay: Antifibrotic activity in C57BL/6 mouse model of bleomycin-induced lung fibrosis assessed as reduction in CD8+CD69+ T-cells at 25 mg/kg dosed via oral gavage for 14 days by flow cytometry analysis; format: functional, organism-based; conditions: time 14.0 day
[8] = test system: Mus musculus; assay: Antifibrotic activity in C57BL/6 mouse model of bleomycin-induced lung fibrosis assessed as reduction in dendritic cells at 50 mg/kg dosed via oral gavage for 14 days by flow cytometry analysis; format: functional, organism-based; conditions: time 14.0 day
[9] = test system: Mus musculus; assay: Antifibrotic activity in C57BL/6 mouse model of bleomycin-induced lung fibrosis assessed as reduction in dendritic cells at 25 mg/kg dosed via oral gavage for 14 days by flow cytometry analysis; format: functional, organism-based; conditions: time 14.0 day
[10] = test system: Mus musculus; assay: Inhibition of epithelial-mesenchymal transition in C57BL/6 mouse model of bleomycin-induced lung fibrosis assessed as decrease in alpha-SMA protein expression in lung tissue at 25 to 50 mg/kg dosed via oral gavage for 14 days by Western blotting analysis; format: functional, organism-based; conditions: dose mg/kg 25-50, time 14.0 day
[11] = test system: Mus musculus; assay: Inhibition of epithelial-mesenchymal transition in C57BL/6 mouse model of bleomycin-induced lung fibrosis assessed as decrease in vimentin protein expression in lung tissue at 25 to 50 mg/kg dosed via oral gavage for 14 days by Western blotting analysis; format: functional, organism-based; conditions: dose mg/kg 25-50, time 14.0 day
[12] = test system: Mus musculus; assay: Inhibition of epithelial-mesenchymal transition in C57BL/6 mouse model of bleomycin-induced lung fibrosis assessed as increase in E-cadherin protein expression in lung tissue at 25 to 50 mg/kg dosed via oral gavage for 14 days by Western blotting analysis; format: functional, organism-based; conditions: dose mg/kg 25-50, time 14.0 day
[13] = test system: Mus musculus; assay: Antifibrotic activity in C57BL/6 mouse model of bleomycin-induced lung fibrosis assessed as inhibition of pathological changes by measuring collagen deposition in lung tissue at 25 to 50 mg/kg dosed via oral gavage for 14 days by H and E staining-based histopathological analysis; format: functional, organism-based; conditions: dose mg/kg 25-50, time 14.0 day
[14] = test system: Mus musculus; assay: Antifibrotic activity in C57BL/6 mouse model of bleomycin-induced lung fibrosis assessed as inhibition of pathological changes by measuring collagen deposition in lung tissue at 25 to 50 mg/kg dosed via oral gavage for 14 days by Masson's trichrome staining-based histopathological analysis; format: functional, organism-based; conditions: dose mg/kg 25-50, time 14.0 day
[15] = test system: Mus musculus; assay: Antifibrotic activity in bleomycin-induced C57BL/6 mouse model of lung fibrosis assessed as reduction in Ashcroft score at 25 to 50 mg/kg dosed via oral gavage for 14 days by H and E and Masson's trichrome staining based histopathological analysis; format: functional, organism-based; conditions: dose mg/kg 25-50, time 14.0 day
[16] = test system: Mus musculus; assay: Antifibrotic activity in bleomycin-induced C57BL/6 mouse model of lung fibrosis assessed as reduction in fibroblast differentiation by measuring alpha-SMA at 25 to 50 mg/kg dosed via oral gavage for 14 days by measuring reduction in alpha-SMA protein expression by immunohistochemical analysis; format: functional, organism-based; conditions: dose mg/kg 25-50, time 14.0 day
[17] = test system: NIH3T3; assay: Cytotoxicity against mouse NIH3T3 cells assessed as reduction in cell viability after 24 to 72 hrs by MTT assay; format: cell-based; conditions: time 24-72 hrs
[18] = test system: NIH3T3; assay: Antifibrotic activity in mouse NIH3T3 cells assessed as decrease in TGF-beta1 induced alpha-SMA protein expression at 40 uM after 24 hrs by Western blotting analysis; format: functional, cell-based
[19] = test system: NIH3T3; assay: Antifibrotic activity in mouse NIH3T3 cells assessed as decrease in TGF-beta1 induced MMP-9 protein expression at 40 uM after 24 hrs by Western blotting analysis; format: functional, cell-based
[20] = test system: NIH3T3; assay: Antifibrotic activity in mouse NIH3T3 cells assessed as up regulation of TGF-beta1 inhibited E-cadherin protein expression at 40 uM after 24 hrs by Western blotting analysis; format: functional, cell-based
[21] = test system: Mus musculus; assay: Antifibrotic activity in C57BL/6 mouse model of bleomycin-induced lung fibrosis assessed as inhibition of pathological changes by measuring inflammatory infiltration in lung tissue at 25 to 50 mg/kg dosed via oral gavage for 14 days by H and E staining-based histopathological analysis; format: functional, organism-based; conditions: dose mg/kg 25-50, time 14.0 day
[22] = test system: NIH3T3; assay: Antifibrotic activity in mouse NIH3T3 cells assessed as reduction in TGF-beta1 induced myofibroblast differentiation by measuring reduction in alpha-SMA protein expression at 40 uM after 24 hrs by immunofluorescence staining analysis; format: functional, cell-based
[23] = test system: A549; assay: Cytotoxicity against human A549 cells assessed as reduction in cell viability after 24 to 72 hrs by MTT assay; format: functional, cell-based; conditions: time hrs 24-72
[24] = test system: A549; assay: Down regulation of alpha-SMA protein expression in human A549 cells at 50 uM by Western blotting analysis; format: functional, cell-based; conditions: time 24.0 hrs
[25] = test system: A549; assay: Down regulation of vimentin protein expression in human A549 cells at 50 uM by Western blotting analysis; format: functional, cell-based; conditions: time 24.0 hrs
[26] = test system: A549; assay: Up regulation of E-cadherin level in TGF-beta-stimulated human A549 cells at 50 uM by Western blot analysis; format: functional, cell-based; conditions: time 24.0 hrs
[27] = test system: A549; assay: Antimigratory activity in human A549 cells assessed as inhibition of TGF-beta1 induced epithelial-mesenchymal transition at 50 uM pretreated with TGF-beta1 for 1 hr followed by compound addition and measured after 24 hrs by scratch wound healing based microscopic analysis; format: functional, cell-based
[28] = test system: Mus musculus; assay: Antifibrotic activity in C57BL/6 mouse model of bleomycin-induced lung fibrosis assessed as inhibition of pathological changes by measuring inflammatory infiltration in lung tissue at 25 to 50 mg/kg dosed via oral gavage for 14 days by Masson's trichrome staining-based histopathological analysis; format: functional, organism-based; conditions: dose mg/kg 25-50, time 14.0 day
[29] = test system: A549; assay: Inhibition of cell migration in TGF-beta-stimulated human A549 cells at 50 uM after 24 hrs by optical microscopic based wound healing assay; format: functional

O=c1c(O)c(-c2ccccc2)oc2cc(O)cc(O)c12 [GALANGIN]
Activity [1]: Active
Activity [2]: inactive
Activity [3]: Dose-dependent effect
Activity [4]: Active
Activity [5]: inactive
Activity [6]: Active
Activity [7]: inactive
Activity [8]: Active
Activity [9]: inactive
Activity [10]: Active
Activity [11]: Active
Activity [12]: Active
Activity [13]: Active
Activity [14]: Active
Activity [15]: Active
Activity [16]: Active
Activity [17]: Toxic
Activity [18]: Active
Activity [19]: Active
Activity [20]: Active
Activity [21]: Active
Activity [22]: Active
Activity [23]: Active
Activity [24]: Active
Activity [25]: Active
Activity [26]: Active
Activity [27]: Active
Activity [28]: Active
inhibition [29]: Active
